Where a name gives a salt, the structure may show the parent alone.
Target: T1, full length SGK1 (Homo sapiens, UniProt O00141)
T1 construct: 125 μM full length SGK1 (Life Technologies Part #PR7358A); purchased Life Technologies PR7358A
T1 sequence (O00141 1-431): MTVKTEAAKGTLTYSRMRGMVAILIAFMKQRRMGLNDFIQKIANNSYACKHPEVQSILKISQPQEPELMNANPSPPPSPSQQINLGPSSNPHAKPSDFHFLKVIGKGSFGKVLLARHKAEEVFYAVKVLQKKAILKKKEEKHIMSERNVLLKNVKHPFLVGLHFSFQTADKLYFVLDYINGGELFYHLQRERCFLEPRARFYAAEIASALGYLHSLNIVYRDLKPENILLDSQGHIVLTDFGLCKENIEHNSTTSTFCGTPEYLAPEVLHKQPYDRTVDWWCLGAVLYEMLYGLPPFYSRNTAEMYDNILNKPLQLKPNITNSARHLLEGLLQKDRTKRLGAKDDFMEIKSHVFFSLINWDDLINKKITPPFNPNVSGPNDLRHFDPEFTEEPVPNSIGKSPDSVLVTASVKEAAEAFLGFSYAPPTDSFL
Assay: SGK1 inhibition Assay A (Caliper LabChip electrophoretic separation of fluorescent peptide substrate and phosphorylated product)
Format: biochemical
Settings: Assay A; 20 μM ATP, 40 min incubation; read-out: SGK1 IC50

| Molecule | IC50 |
| --- | --- |
| COCCNc1cccc(C(=O)N[C@@H]2CCCN(c3cc(C4=CCN(C(C)=O)C4)n4ncnc(N)c34)C2)n1 [Example 765, (R)-N-(1-(7-(1-acetyl-2,5-dihydro-1H-pyrrol-3-yl)-4-aminopyrrolo[2,1-f][1,2,4]triazin-5-yl)piperidin-3-yl)-6-((2-methoxyethyl)amino)picolinamide] | 200 nM |
| Cc1ccccc1C(=O)N[C@@H]1CCCN(c2cc(-c3ccc(S(C)(=O)=O)cc3)n3ncnc(N)c23)C1 [Example 52, (R)-N-(1-(4-amino-7-(4-(methylsulfonyl)phenyl)pyrrolo[2,1-f][1,2,4]triazin-5-yl)piperidin-3-yl)-2-methylbenzamide] | 210 nM |
| Nc1ccc2[nH]nc(C(=O)N[C@@H]3CCCN(c4cc(-c5cncnc5)n5ncnc(N)c45)C3)c2c1 [Example 690, (R)-5-amino-N-(1-(4-amino-7-(pyrimidin-5-yl)pyrrolo[2,1-f][1,2,4]triazin-5-yl)piperidin-3-yl)-1H-indazole-3-carboxamide] | 507 nM |
| CCn1cc(-c2cc(N3CCC[C@@H](NC(=O)c4sc(Cl)cc4OCCN(C)C)C3)c3c(N)ncnn23)ccc1=O [Example 682, (R)—N-(1-(4-amino-7-(1-ethyl-6-oxo-1,6-dihydropyridin-3-yl)pyrrolo[2,1-f][1,2,4]triazin-5-yl)piperidin-3-yl)-5-chloro-3-(2-(dimethylamino)ethoxy)thiophene-2-carboxamide] | 1420 nM |
| CC(=O)N1CC=C(c2cc(N3CCC[C@@H](NC(=O)c4ccon4)C3)c3c(N)ncnn23)C1 [Example 879, (R)—N-(1-(7-(1-acetyl-2,5-dihydro-1H-pyrrol-3-yl)-4-aminopyrrolo[2,1-f][1,2,4]triazin-5-yl)piperidin-3-yl)isoxazole-3-carboxamide] | 149 nM |
| methyl (R)-3-(4-amino-5-(3-(6-(4-methylpiperazin-1-yl)picolinamido)piperidin-1-yl)pyrrolo[2,1-f][1,2,4]triazin-7-yl)-2,5-dihydro-1H-pyrrole-1-carboxylate [Example 789] | 17 nM |
| CC(=O)N1CC=C(c2cc(N3CCC[C@@H](NC(=O)c4cccc(NC5CN(C)C5)n4)C3)c3c(N)ncnn23)C1 [Example 766, (R)-N-(1-(7-(1-acetyl-2,5-dihydro-1H-pyrrol-3-yl)-4-aminopyrrolo[2,1-f][1,2,4]triazin-5-yl)piperidin-3-yl)-6-((1-methylazetidin-3-yl)amino)picolinamide] | 679 nM |
| CC(=O)N1CC=C(c2cc(N3CCC[C@@H](NC(=O)c4cccc(CN5CCN(C)CC5)n4)C3)c3c(N)ncnn23)C1 [Example 727, (R)-N-(1-(7-(1-acetyl-2,5-dihydro-1H-pyrrol-3-yl)-4-aminopyrrolo[2,1-f][1,2,4]triazin-5-yl)piperidin-3-yl)-6-((4-methylpiperazin-1-yl)methyl)picolinamide] | 161 nM |
| Cc1nc(C)c(C(=O)N[C@@H]2CCCN(c3cc(-c4cncnc4)n4ncnc(N)c34)C2)s1 [Example 511, (R)-N-(1-(4-amino-7-(pyrimidin-5-yl)pyrrolo[2,1-f][1,2,4]triazin-5-yl)piperidin-3-yl)-2,4-dimethylthiazole-5-carboxamide] | 450 nM |
| CC(C)Cn1cc(-c2cc(N3CCC[C@@H](NC(=O)c4[nH]c5ccccc5c4OCCN(C)C)C3)c3c(N)ncnn23)ccc1=O [Example 369, (R)-N-(1-(4-amino-7-(1-isobutyl-6-oxo-1,6-dihydropyridin-3-yl)pyrrolo[2,1-f][1,2,4]triazin-5-yl)piperidin-3-yl)-3-(2-(dimethylamino)ethoxy)-1H-indole-2-carboxamide] | 196 nM |

Continued by falling IC50, values first:

| IC50 | Molecule |
| --- | --- |
| 108 nM | COC(=O)N1CC=C(c2cc(N3CCC[C@@H](NC(=O)c4sc(Cl)cc4OCC(=O)N4CCCC4)C3)c3c(N)ncnn23)C1 [Example 418, Methyl (R)-3-(4-amino-5-(3-(5-chloro-3-(2-oxo-2-(pyrrolidin-1-yl)ethoxy)thiophene-2-carboxamido)piperidin-1-yl)pyrrolo[2,1-f][1,2,4]triazin-7-yl)-2,5-dihydro-1H-pyrrole-1-carboxylate] |
| 85 nM | COC(=O)N1CC=C(c2cc(N3CCC[C@@H](NC(=O)c4sc5ccccc5c4OC4CNC4)C3)c3c(N)ncnn23)C1 [Example 674, methyl (R)-3-(4-amino-5-(3-(3-(azetidin-3-yloxy)benzo[b]thiophene-2-carboxamido)piperidin-1-yl)pyrrolo[2,1-f][1,2,4]triazin-7-yl)-2,5-dihydro-1H-pyrrole-1-carboxylate] |
| 64 nM | CC(=O)N1CC=C(c2cc(N3CCC[C@@H](NC(=O)c4ccc5c(c4)OCO5)C3)c3c(N)ncnn23)C1 [Example 467, (R)-N-(1-(7-(1-acetyl-2,5-dihydro-1H-pyrrol-3-yl)-4-aminopyrrolo[2,1-f][1,2,4]triazin-5-yl)piperidin-3-yl)benzo[d][1,3]dioxole-5-carboxamide] |
| 13 nM | N#Cc1ccc(-c2cc(N3CCC[C@@H](NC(=O)c4sc(Cl)cc4OCC(=O)N4CCCC4)C3)c3c(N)ncnn23)cn1 [Example 420, (R)-N-(1-(4-amino-7-(6-cyanopyridin-3-yl)pyrrolo[2,1-f][1,2,4]triazin-5-yl)piperidin-3-yl)-5-chloro-3-(2-oxo-2-(pyrrolidin-1-yl)ethoxy) thiophene-2-carboxamide] |
| 8 nM | COc1cc(C)sc1C(=O)N[C@@H]1CCCN(c2cc(-c3ccc(S(C)(=O)=O)cc3)n3ncnc(N)c23)C1 [Example 100, (R)-N-(1-(4-amino-7-(4-(methylsulfonyl)phenyl)pyrrolo[2,1-f][1,2,4]triazin-5-yl)piperidin-3-yl)-3-methoxy-5-methylthiophene-2-carboxamide] |
| 7 nM | N#Cc1ccc(-c2ccc(C(=O)N[C@@H]3CCCN(c4cc(-c5ccnc(C(F)F)c5)n5ncnc(N)c45)C3)s2)cc1 [Example 543, (R)-N-(1-(4-amino-7-(2-(difluoromethyl)pyridin-4-yl)pyrrolo[2,1-f][1,2,4]triazin-5-yl)piperidin-3-yl)-5-(4-cyanophenyl)thiophene-2-carboxamide] |
| 6 nM | CN(C)CCOc1cc(Cl)sc1C(=O)N[C@@H]1CCCN(c2cc(-c3ccc(-n4cnnn4)cc3)n3ncnc(N)c23)C1 [Example 187, (R)-N-(1-(7-(4-(1H-tetrazol-1-yl)phenyl)-4-aminopyrrolo[2,1-f][1,2,4]triazin-5-yl)piperidin-3-yl)-5-chloro-3-(2-(dimethylamino)ethoxy) thiophene-2-carboxamide, 2 TFA] |
| 5 nM | CC(=O)N1CC=C(c2cc(N3CCC[C@@H](NC(=O)c4cccc(N5CC6(C5)CN(C(C)C)C6)n4)C3)c3c(N)ncnn23)C1 [Example 781, (R)-N-(1-(7-(1-acetyl-2,5-dihydro-1H-pyrrol-3-yl)-4-aminopyrrolo[2,1-f][1,2,4]triazin-5-yl)piperidin-3-yl)-6-(6-isopropyl-2,6-diazaspiro[3.3]heptan-2-yl)picolinamide] |
| 4 nM | Nc1ncnn2c(-c3ccnc(C(F)F)c3)cc(N3CCC[C@@H](NC(=O)c4cc5ccccc5s4)C3)c12 [Example 645, (R)-N-(1-(4-amino-7-(2-(difluoromethyl)pyridin-4-y1)pyrrolo[2,1-f][1,2,4]triazin-5-y1)piperidin-3-yl)benzo[b]thiophene-2-carboxamide] |
| 3 nM | COC(=O)N1CC=C(c2cc(N3CCC[C@@H](NC(=O)c4sc(C5CC5)cc4OC4CCNCC4)C3)c3c(N)ncnn23)C1 [Example 379, Methyl (R)-3-(4-amino-5-(3-(5-cyclopropyl-3-(piperidin-4-yloxy)thiophene-2-carboxamido)piperidin-1-yl)pyrrolo[2,1-f][1,2,4]triazin-7-yl)-2,5-dihydro-1H-pyrrole-1-carboxylate] |
| 3 nM | CC(=O)N1CC=C(c2cc(N3CCC[C@@H](NC(=O)c4sc(Cl)cc4OC[C@H](C)N)C3)c3c(N)ncnn23)C1 [Example 330, N—((R)-1-(7-(1-acetyl-2,5-dihydro-1H-pyrrol-3-yl)-4-aminopyrrolo[2,1-f][1,2,4]triazin-5-yl)piperidin-3-yl)-3-((S)-2-aminopropoxy)-5-chlorothiophene-2-carboxamide] |
| 2 nM | CC(=O)N1CC=C(c2cc(N3CCC[C@@H](NC(=O)c4cccc(N5CCN6CCCC6C5)n4)C3)c3c(N)ncnn23)C1 (stereo partly drawn) [Example 769, N-((R)-1-(7-(1-acetyl-2,5-dihydro-1H-pyrrol-3-yl)-4-aminopyrrolo[2,1-f][1,2,4]triazin-5-yl)piperidin-3-yl)-6-(hexahydropyrrolo[1,2-a]pyrazin-2(1H)-yl)picolinamide] |
| 0.6 nM | CC(=O)N1CC=C(c2cc(N3CCC[C@@H](NC(=O)c4sc(Cl)cc4O[C@@H]4C[C@H]5CC[C@@H](C4)N5C)C3)c3c(N)ncnn23)C1 [Example 612, N—((R)-1-(7-(1-acetyl-2,5-dihydro-1H-pyrrol-3-yl)-4-aminopyrrolo[2,1-f][1,2,4]triazin-5-yl)piperidin-3-yl)-5-chloro-3-((8-methyl-8-azabicyclo[3.2.1]octan-3-yl)oxy)thiophene-2-carboxamide] |
| 0.4 nM | NC(=O)c1ccc(-c2cc(N3CCC[C@@H](NC(=O)c4sc(C5CC5)cc4OC4CNC4)C3)c3c(N)ncnn23)cc1F [Example 389, (R)—N-(1-(4-amino-7-(4-carbamoyl-3-fluorophenyl)pyrrolo[2,1-f][1,2,4]triazin-5-yl)piperidin-3-yl)-3-(azetidin-3-yloxy)-5-cyclopropylthiophene-2-carboxamide] |

From patent US20260250290A1 (BRISTOL-MYERS SQUIBB COMPANY, priority 2023, published 2026)
